Source: ChEMBL document CHEMBL3880412, “Indole derivatives as CFTR modulators” (2009)

System: Cystic fibrosis transmembrane conductance regulator (Homo sapiens), P13569 [F508del]
Test: Correction activity at CFTR F508 deletion mutant (unknown origin) expressed in mouse NIH/3T3 cells assessed as increase in cAMP/genistein-dependent current amplitude at 10 uM incubated for 10 mins at 37 degC by patch clamp method relative to control
Format: cell-based

Chain of Cystic fibrosis transmembrane conductance regulator (Homo sapiens), P13569 [F508del] (P13569 as listed by the source): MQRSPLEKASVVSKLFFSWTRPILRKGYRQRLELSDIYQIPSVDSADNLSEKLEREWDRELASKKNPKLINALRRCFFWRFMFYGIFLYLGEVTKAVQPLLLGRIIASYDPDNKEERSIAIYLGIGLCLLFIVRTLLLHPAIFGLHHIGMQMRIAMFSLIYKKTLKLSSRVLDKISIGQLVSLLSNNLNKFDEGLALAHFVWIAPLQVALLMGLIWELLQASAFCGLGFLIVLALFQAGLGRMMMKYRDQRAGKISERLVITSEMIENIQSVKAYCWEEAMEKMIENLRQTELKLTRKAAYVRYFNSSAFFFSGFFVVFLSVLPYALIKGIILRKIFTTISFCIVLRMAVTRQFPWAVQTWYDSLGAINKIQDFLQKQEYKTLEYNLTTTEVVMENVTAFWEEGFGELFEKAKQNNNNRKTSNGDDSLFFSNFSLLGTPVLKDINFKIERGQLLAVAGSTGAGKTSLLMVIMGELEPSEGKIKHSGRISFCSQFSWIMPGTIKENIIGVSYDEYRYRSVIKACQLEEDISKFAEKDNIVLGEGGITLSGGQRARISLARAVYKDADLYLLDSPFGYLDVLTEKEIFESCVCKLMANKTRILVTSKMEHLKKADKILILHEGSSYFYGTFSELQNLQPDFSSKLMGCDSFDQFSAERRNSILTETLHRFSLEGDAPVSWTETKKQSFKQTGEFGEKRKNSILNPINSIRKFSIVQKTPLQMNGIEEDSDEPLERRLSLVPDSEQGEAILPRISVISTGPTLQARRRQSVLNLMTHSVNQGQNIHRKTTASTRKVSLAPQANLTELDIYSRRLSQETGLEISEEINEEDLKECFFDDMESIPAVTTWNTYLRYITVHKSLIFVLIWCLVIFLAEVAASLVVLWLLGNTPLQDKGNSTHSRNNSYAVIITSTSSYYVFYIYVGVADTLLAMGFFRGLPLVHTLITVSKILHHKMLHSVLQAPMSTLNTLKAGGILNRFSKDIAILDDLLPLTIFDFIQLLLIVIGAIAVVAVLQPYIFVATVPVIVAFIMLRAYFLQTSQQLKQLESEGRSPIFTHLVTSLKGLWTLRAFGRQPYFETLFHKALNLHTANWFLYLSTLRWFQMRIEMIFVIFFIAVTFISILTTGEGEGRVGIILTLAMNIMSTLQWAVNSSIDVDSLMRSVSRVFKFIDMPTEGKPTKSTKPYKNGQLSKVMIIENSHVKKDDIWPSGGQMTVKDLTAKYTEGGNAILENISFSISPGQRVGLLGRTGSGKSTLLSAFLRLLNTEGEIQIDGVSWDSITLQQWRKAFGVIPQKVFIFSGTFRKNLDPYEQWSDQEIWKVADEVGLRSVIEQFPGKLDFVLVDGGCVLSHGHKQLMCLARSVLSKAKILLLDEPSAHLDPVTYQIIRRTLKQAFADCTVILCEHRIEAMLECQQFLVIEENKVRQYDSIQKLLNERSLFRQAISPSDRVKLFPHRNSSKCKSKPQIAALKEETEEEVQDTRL

Q: With CC(C)(C)c1cc2cc(NC(=O)C3(c4ccc5c(c4)OC(F)(F)O5)CC3)c(F)cc2n1CC[N+](C)(C)C as the molecule, how does the Emax read?
A: 122%

Q: For CC(C)(C)c1cc2cc(NC(=O)C3(c4ccc5c(c4)OCO5)CC3)c(F)cc2n1C[C@@H](O)CO, which Emax is on record?
A: 120 to 132%
